From paper PMC7891422, “Tryptophan Analogues with Fixed Side‐Chain Orientation: Expanding the Scope” (Chembiochem, 2020) come the findings set out here.

This experiment addresses T1, ghrelin receptor (Homo sapiens, UniProt Q92847).
T1 construct: expressed in transfected cells; host or cells: COS7 cells (stably transfected)
Nature of the experiment: IP‐One assay (Cisbio IP-One Gq kit), inverse agonist activity. In kind it is cell-based. To be noted: mean±SEM of at least two independent experiments.

Structures are written as SMILES.

T1 sequence (Q92847 whole entry, species assumed): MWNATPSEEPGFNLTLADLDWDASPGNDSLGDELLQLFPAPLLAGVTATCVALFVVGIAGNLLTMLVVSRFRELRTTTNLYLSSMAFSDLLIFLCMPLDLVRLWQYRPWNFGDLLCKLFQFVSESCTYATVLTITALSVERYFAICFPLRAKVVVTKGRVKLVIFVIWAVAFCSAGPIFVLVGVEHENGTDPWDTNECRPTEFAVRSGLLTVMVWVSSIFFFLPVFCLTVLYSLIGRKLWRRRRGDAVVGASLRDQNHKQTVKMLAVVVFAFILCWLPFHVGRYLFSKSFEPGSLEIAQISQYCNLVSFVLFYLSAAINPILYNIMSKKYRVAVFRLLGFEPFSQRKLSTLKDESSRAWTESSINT
Protocol: The four peptides and two known inverse agonists were tested towards their activity on the ghrelin receptor that was stably transfected in COS7 cells and examined in the Cisbio IP‐One assay as described in the supplementary section.
The assay was carried out in COS7 cells that were stably transfected with the ghrelin receptor. Data are the mean ±SEM of at least two independent experiments performed in triplicate.
IP-One assay COS7 cells stably transfected with the ghrelin receptor fused C-terminally to eYFP were cultured in a humidified atmosphere at 37 °C and 5% CO2 in Dulbecco's modified Eagle's medium with higher glucose supplemented with 10% (v/v) FCS and 0.4 mg/ml hygromycin B. Cisbio IP-One Gq assay kit was used according to previous description.[4] Shortly, 10000 cells/well were seeded out in a 384-well flat white plate and on the next day, stimulation was carried out in triplicates for 3h. 3 µl IP1-d2 and 3 µl Ab-cryptate were added and incubated on a tumbler for 60 min. Fluorescence was measured at 620 nm and 665 nm. HTRF ratio was calculated as the ratio 665/620. Obtained data were analyzed with GraphPad Prism 5.0 (GraphPad Software, San Diego, USA)
Emax is the efficacy of the peptide and represents the difference between constitutive activity and activity at maximal effect of the peptide. EC50 is the peptide concentration at half-

Consider `CC(C)C[C@H](NC(=O)[C@H](CC(C)C)NC(=O)[C@@H](Cc1c[nH]c2ccccc12)NC(=O)[C@H](Cc1ccccc1)NC(=O)[C@@H](Cc1c[nH]c2ccccc12)NC(=O)[C@@H](N)CCCCN)C(N)=O` [Peptide 4, KwFwLL‐NH2], for which the “E max±SEM” value (efficacy = difference between constitutive activity and activity at maximal effect, normalized to KbFwLL‐NH2 (3)) is 66±3 Δ%. Moreover, for the setting “inverse agonism, COS7 cells stably transfected with ghrelin receptor-eYFP, 3 h stimulation”, the EC50 was 234 nM.
